Measurements taken from PMC9137479, “The Class A β-Lactamase Produced by Burkholderia Species Compromises the Potency of Tebipenem against a Panel of Isolates from the United States” (Antibiotics, 2022).

Legend:
AmpC1 = target: T1, AmpC1 (Burkholderia multivorans, UniProt A0A0H3KQ39); assay: steady-state inhibition kinetics; assay type: biochemical; details: covalent acyl-enzyme; not hydrolysed; 10 mM PBS pH 7.4, ~25 °C (stated for hydrolysis curves)
T1 construct: gene ampC; purified class C beta-lactamase
Description: steady-state inhibition kinetics on AmpC1

PenA1 = target: T2, PenA1 (Burkholderia multivorans, UniProt A0A0H3KN52); assay: steady-state inhibition kinetics; assay type: biochemical; details: read-out: PenA1; covalent acyl-enzyme; slow substrate; partition ratio method at 15 min; 10 mM PBS pH 7.4, ~25 °C (stated for hydrolysis curves)
T2 construct: gene ampC; purified class A beta-lactamase
Description: steady-state inhibition kinetics on PenA1

T1 sequence (A0A0H3KQ39 entry or part of it): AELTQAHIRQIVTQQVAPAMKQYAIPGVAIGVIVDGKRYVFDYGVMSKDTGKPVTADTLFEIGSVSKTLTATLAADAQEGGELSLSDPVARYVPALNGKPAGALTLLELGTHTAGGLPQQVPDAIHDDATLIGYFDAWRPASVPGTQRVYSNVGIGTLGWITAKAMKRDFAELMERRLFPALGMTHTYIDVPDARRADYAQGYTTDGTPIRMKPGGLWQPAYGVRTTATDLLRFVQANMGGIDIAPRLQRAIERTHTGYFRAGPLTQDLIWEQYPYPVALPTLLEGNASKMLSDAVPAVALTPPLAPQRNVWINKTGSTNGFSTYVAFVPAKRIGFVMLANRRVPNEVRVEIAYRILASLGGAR
T2 sequence (A0A0H3KN52 entry or part of it): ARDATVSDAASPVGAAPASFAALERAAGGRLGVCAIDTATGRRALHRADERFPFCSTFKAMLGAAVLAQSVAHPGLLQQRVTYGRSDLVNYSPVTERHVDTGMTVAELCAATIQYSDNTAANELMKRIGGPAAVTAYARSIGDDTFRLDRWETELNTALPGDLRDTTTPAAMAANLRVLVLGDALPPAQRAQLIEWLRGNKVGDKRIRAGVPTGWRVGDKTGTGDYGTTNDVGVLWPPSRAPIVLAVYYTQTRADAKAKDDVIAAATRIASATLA

C[C@@H](O)[C@H]1C(=O)N2C(C(=O)O)=C(SC3CN(C4=NCCS4)C3)[C@H](C)[C@H]12 [tebipenem]
Ki (AmpC1): 22 ± 2 µM
Ki (PenA1): 4.7 ± 0.5 µM
